Legend:
[1] = test system: Male Wistar rats; assay: Oxaliplatin-induced cold allodynia (acetone test); type: in vivo, rat; conditions: oxaliplatin model
Method: (§1) Male Wistar rats (200-250 g, Harlan Italy) were housed in a room with controlled temperature (22±1° C.), humidity (60±10%) and light (12 h per day); food and water were available ad libitum.
(§2) The rats received: • 1—four once a day intraperitoneal (i.p.) injections of either paclitaxel (Tocris, Italy) (2 mg/kg/day i.p.; cumulative dose of 8 mg/kg i.p.) or vehicle (saline, 1 ml/kg/day i.p.), administered on alternate days (days 0, 2, 4, and 6), as described in Polomano et al, Pain 2001, 94:293-294. Behavioral testing was performed prior to paclitaxel/vehicle administration (day-1), and again on days 5-7-10-14 following paclitaxel/vehicle injection; • or • 2—oxaliplatin (2.4 mg/kg) dissolved in 5% glucose solution which was administered intraperitoneally (i.p.) at a volume of 0.5 mL/rat, for 5 consecutive days every week for 3 weeks, as described in Cavaletti et al., Eur. J. Cancer, 2001 37, 2457-63. Behavioral testing was performed before oxaliplatin/vehicle administration (day-1), and at again on day 3-5-7-10-14-21 day following oxaliplatin/vehicle injection.
DF2726A (30 mg/kg/os) was dissolved in PBS and it was administrated, for 24 consecutive days starting 3 days before oxaliplatin administration and continuing for other 21 days after the first administration of oxaliplatin. During this period the compound was given 2 h after oxaliplatin treatment. Since DF2726A is a sodium salt it was dissolved at the concentration of 16 mg/ml, to reach the active drug dose of 30 mg/kg.
DF1681B was administered by continuous subcutaneous infusion using the ALZET osmotic pumps Model 2ML2 (Charles River). In order to obtain a rate of infusion of 8 mg/hr/kg as described by Cavalieri et al Int J Immunopathol Pharmacol, 2005, 18:475-86, DF1681B (9.37 g) was dissolved in sterile saline (25 ml) at a concentration of 375 mg/ml and vortexed for 10 min. Osmotic pumps were implanted under anesthesia (100 mg/kg ketamine and 10 mg/kg xylazine i.p.). Pumps were prepared according to Alzet instructions sheet. Briefly, pumps were filled with 2 ml of DF1681B solution or vehicle using sterile syringe. Finally, pumps were kept in water bath overnight in stove at 37° C. […]
(§3) Cold sensitivity was measured as the number of foot withdrawal responses after application of acetone to the dorsal surface of the paw (2). […] Cold responses were measured on both paws before (day −1) and, then on 5, 7, 10 and 14 days after paclitaxel/vehicle administration or on days 0, 5, 7, 10, 14 and 21 after oxalipaltin/vehicle administration.
(§4) All data were presented as the mean±SEM. The significance of differences between groups was determined by two-way analyses of variance (ANOVA) followed by Bonferroni post hoc tests for multiple comparisons. […]

[2] = test system: Male Wistar rats; assay: Paclitaxel-induced cold allodynia (acetone test); type: in vivo, rat; conditions: paclitaxel model
Method: as §1, §2
(§5) DF2726A (30 mg/kg) (5 mg/1 ml, 0.5 ml/os/rat) was dissolved in 10% SOLUTOL-HS15 and N-methylpyrrolidone (NMP) (SOLUTOL:NMP 2:1 w/v) and 90% PBS 1×, and was administered once a day from day −3 up to day 11 after paclitaxel administration. Anti-allodynic effects were assessed on day 5, 7, 10 and 14 after paclitaxel administration. Control animals received vehicle (10% SOLUTOL-NMP 2:1 w/v and PBS, 5 mg/1 ml; 0.5 m1/os/rat).
(§6) DF1681B was administered by continuous subcutaneous infusion using the ALZET osmotic pumps Model 2ML2 (Charles River). In details, DF1681B (9.37 g) was dissolved in sterile saline (25 ml) at a concentration of 375 mg/ml and vortexed for 10 min. Osmotic pumps were implanted under anesthesia (100 mg/kg ketamine and 10 mg/kg xylazine i.p.) through a surgical incision between the scapulae. Pumps were implanted 3 days before first paclitaxel injection (day-3). Drug delivery was carried out continuously until day +11. Control animals received vehicle (sterile saline).
as §3, with “(2). A drop of acetone was applied to the dorsal surface of paws with a syringe connected to a thin polyethylene tube while the rats was standing on a metal mesh.” for “(2).”
as §4

[3] = test system: Male Wistar rats; assay: Oxaliplatin-induced mechanical allodynia (Dynamic Plantar Aesthesiometer); type: in vivo, rat; conditions: oxaliplatin model, days 14 and 21
Method: as §1
as §2, with “Behavioral testing was performed before oxaliplatin/vehicle administration (day-1), and at again on day 3-5-7-10-14-21 day following oxaliplatin/vehicle injection.” left out
To assess the development of mechanical allodynia, sensitivity to tactile stimulation was measured using the Dynamic Plantar Aesthesiometer (DPA, Ugo Basile, Italy). […]
as §4

[4] = test system: Male Wistar rats; assay: Paclitaxel-induced mechanical allodynia (Dynamic Plantar Aesthesiometer); type: in vivo, rat; conditions: paclitaxel model
Method: as §1, §2, §5, §6
To assess the development of mechanical allodynia, sensitivity to tactile stimulation was measured using the Dynamic Plantar Aesthesiometer (DPA, Ugo Basile, Italy). Animals were placed in a chamber with a mesh metal floor covered by a plastic dome that enabled the animal to walk freely, but not to jump. The mechanical stimulus were then delivered in the mid-plantar skin of the hind paw. The cut-off was fixed at 50 g. […]
as §4

[5] = test system: F-11 cell line; assay: Paclitaxel-induced cytoskeleton modifications, immunofluorescence in differentiated F11 neurons; type: cell-based, mouse/rat; conditions: 24 hours
Method: In this study, the effects of paclitaxel, administered alone or in combination with reparixin (DF1681Y; R-(−)-2-(4-isobutylphenyl)propionyl methanesulfonamide) dissolved in aqueous solution of lysine to form the in situ salt, on the cytoskeleton components and organization was performed. As experimental model, a F-11 cell line, a fusion product of mouse neuroblastoma cell line N18TG-2 cells with embryonic rat dorsal root ganglia sensory neurons, was used. These cells were selected because of the presence of neuronal markers and properties that are unique to the parental rat sensory neurons.
F11 (ECACC, Salisbury, UK) cells were cultivated DMEM (Euroclone, MI, Italy) medium supplemented with 10% FBS, USA origin, (Sigma-Aldrich St. Louis, CO, USA), 1% penicillin/streptomycin (Euroclone) and 1% glutamine (Euroclone). After, cells were differentiated with mouse NGF (mNGF) dissolved in DMEM with 1% penicillin/streptomycin and 1% glutamine (FBS free) at the final concentration 50 ng/ml. Medium was replaced every 3 days until complete differentiation, occurred after 7 days. Neurons were not treated (controls) or treated for 24 hours with reparixin [10 μM final concentration], paclitaxel (Sigma-Aldrich) [10 nM final concentration] and the combination of the two molecules.
Cells were fixed in paraformaldehyde 4% in PBS for 20 min at RT and permeabilized in methanol for 5 min at −20° C. Cells were then blocked with PBS containing 4% BSA for 30 min and incubated with primary antibodies diluted in the blocking solution overnight at 4° C.: rabbit β-tubulin (Abcam, Cambridge, UK) 1:500; mouse α-tubulin (Abcam) 1:200 and mouse α-tubulin acetylated (Abcam) 1:1000. Cells were then rinsed in PBS several times before incubation with secondary antibodies, goat anti rabbit conjugated with Alexafluor 633 (1:2000), and goat anti mouse conjugated with Alexafluor 488 (1:2000), (Life Technologies, CA, USA) for 30 min at RT. After extensive washing coverslips were mounted with Vectashield mounting medium with DAPI (Vector Laboratories Burlingame, CA, USA) and then observed at confocal laser microscope.

[6] = DF1681B continuous subcutaneous infusion from day -3 to day +11, day 14
[7] = reparixin 10 μM in combination with paclitaxel 10 nM
[8] = DF2726A 30 mg/kg os once a day from day -3 to day 11, day 14 (after end of treatment)
[9] = DF2726A 30 mg/kg os once a day from day -3 to day 11, days 5 (P<0.05), 7 (P<0.001), 10 (P<0.001)

In the case of `CC(C)Cc1ccc([C@@H](C)C(=O)NS(C)(=O)=O)cc1` [DF1681B, R(−)-2-(4-isobutylphenyl)propionyl methansulfonamide], the “cold allodynia (number of paw withdrawals)” value ([1]; DF1681B continuous subcutaneous infusion 8 mg/hr/kg from day -3, day 3) is reported as “did not show antiallodynic effect”, the “cold allodynia (number of paw withdrawals)” value ([1]; DF1681B continuous subcutaneous infusion 8 mg/hr/kg from day -3, days 5, 7, 10, 14, 21) is reported as “significant reduction of cold allodynia” and the “cold allodynia (number of paw withdrawals) vs animals treated with vehicle” value (“cold allodynia … vs animals treated with vehicle” for short) [2, 6] is reported as “No additional antiallodynic effect”. For the same molecule, the “cold allodynia … vs animals treated with vehicle” value ([2]; DF1681B continuous subcutaneous infusion from day -3 to day +11, days 5 (P<0.01), 7 (P<0.001), 10 (P<0.001)) was “significant reduction of cold allodynia”, the “mechanical allodynia (paw withdrawal threshold)” value ([3]; DF1681B continuous subcutaneous infusion 8 mg/hr/kg from day -3) was “significant antiallodynic effect” and the “mechanical allodynia (paw withdrawal threshold) vs animals treated with vehicle” value ([4]; DF1681B continuous subcutaneous infusion by osmotic pump from day -3 to day +11, days 5 (P<0.01), 7 (P<0.001), 10 (P<0.001)) was “significant reduction of mechanical allodynia”. The “mechanical allodynia (paw withdrawal threshold) vs animals treated with vehicle” value [4, 6] was “No additional antiallodynic effect”.
For `CC(=O)O[C@H]1C(=O)[C@@]2(C)[C@H]([C@H](OC(=O)c3ccccc3)[C@]3(O)C[C@H](OC(=O)[C@H](O)[C@@H](NC(=O)c4ccccc4)c4ccccc4)C(C)=C1C3(C)C)[C@]1(OC(C)=O)CO[C@@H]1C[C@@H]2O` [paclitaxel, reference compound], the “acetylated α-tubulin (marker of stable microtubules), immunofluorescence” value ([5]; paclitaxel 10 nM alone) was “increased acetylated α-tubulin”, the “fluorescence intensity of β-tubulin” value ([5]; paclitaxel 10 nM alone) was “decrease of the fluorescence intensity of β-tubulin” and the neurite diameter ([5]; paclitaxel 10 nM alone) was “increase of neurite diameter”.
`CC(C)Cc1ccc([C@@H](C)C(=O)NS(C)(=O)=O)cc1` [reparixin, R-(−)-2-(4-isobutylphenyl)propionyl methanesulfonamide] was tested, and the “acetylated α-tubulin (marker of stable microtubules), immunofluorescence” value [5, 7] was “acetylated α-tubulin appears similar to the control”, the “increased neurite thickness induced by paclitaxel treatment” value [5, 7] was “able to abolish” and the “α-tubulin and β-tubulin immunofluorescence (dimer formation)” value [5, 7] was “able to counteract the effect of paclitaxel alone on dimer formation”.
With `CC(C)(C(=O)[O-])c1ccc(Nc2nc(C(F)(F)F)cs2)cc1.[Na+]` [DF2726A, 2-methyl-2-(4-{[4-(trifluoromethyl)-1,3-thiazol-2-yl]amino}phenyl)propanoic acid sodium salt] the “cold allodynia (number of paw withdrawals)” value ([1]; DF2726A 30 mg/kg/os for 24 consecutive days from day -3, day 3) was “did not show antiallodynic effect”, the “cold allodynia (number of paw withdrawals)” value ([1]; DF2726A 30 mg/kg/os for 24 consecutive days from day -3, days 5, 7, 10, 14, 21) was “significant reduction of cold allodynia” and the “cold allodynia … vs animals treated with vehicle” value [2, 8] was “No additional antiallodynic effect”. The “cold allodynia … vs animals treated with vehicle” value [2, 9] was “significant reduction of cold allodynia”, the “mechanical allodynia (paw withdrawal threshold)” value ([3]; DF2726A 30 mg/kg/os for 24 consecutive days from day -3) was “significant antiallodynic effect” and the “mechanical allodynia (paw withdrawal threshold) vs animals treated with vehicle” value [4, 8] was “No additional significant antiallodynic effect”. The “mechanical allodynia (paw withdrawal threshold) vs animals treated with vehicle” value [4, 9] was “significant reduction of mechanical allodynia”.
